Reference: patent US9969771B2, “Tetrapeptide having effect of inhibiting VEGF-induced angiogenesis and use thereof” (AVIXGEN INC., priority 2015, dated 2018)
Where a SMILES comes first, the peptide text is derived from it.

Key:
p38 = assay: Western blot, p38 activation in VEGF-A-stimulated HUVECs; type: cell-based, human; settings: HUVECs stimulated with VEGF-A
Description: Cells were lyzed in RIPA buffer, and 50 μg of proteins were isolated by SDS-PAGE and then transferred to a PVDF membrane. The membrane was reacted with an antibody with respect to a target protein for 2 hours. The membrane was washed twice and reacted with a horseradish peroxidase-conjugated antibody, and then an amount of the target proteins was assessed with an enhanced chemiluminescence system.

[1] = tested on: HCT116 human colorectal tumor cells; assay: Human colorectal tumor (HCT116) xenograft model; type: in vivo, nude mouse
Description: 100 μl each of 2×10^6 B16F1 mouse melanoma cells and 1×10^7 HCT116 human colorectal tumor cells were subcutaneously injected into the left side of a C57BL/6J mouse and a nude mouse. After a tumor volume reached at least 50 to 70 mm3 (taking about 7 days), saline or RLYE (SEQ ID NO: 2) (0.5 or 1.0 mg/kg) was peritoneally injected daily into the mice. A tumor size was two-dimensionally measured with calipers. A tumor volume (mm3) was calculated by a formula of […]. Following homogenization of tumor tissue with PBS and centrifugation (at 12,000×g for 5 min), a hemoglobin-containing supernatant was extracted to be used in analysis with Drabkin's reagent (Sigma). A hemoglobin level was measured by a cyanmethemoglobin method, and the amount of hemoglobin per gram of the tumor was calculated.
Tumor tissue was fixed in 10% formalin, and inserted into paraffin. A slide was prepared from a tissue section, embedded in xylene to remove the paraffin, and rehydrated with 100%, 95%, 80% and 70% ethanol (EtOH) in s stepwise manner. Afterward, the slide was washed with deionized water multiple times at room temperature. To inhibit an intracellular peroxidase activity, the section was reacted in 0.3% hydrogen peroxide-containing methanol for 15 minutes, washed with PBS three times, reacted in 3% goat serum-containing PBS at room temperature for 2 hours, and reacted with a PECAM-1 antibody overnight at 4° C. The tissue section slide was washed with PBS three times, and reacted with a TRITC-conjugated secondary antibody for 1 hour. In addition, the tumor tissue section was also reacted with FITC-isolectin B4 ([…]; Vector Laboratories) for 1 hour. The tissue section was washed with PBS three times, and treated with a Permount solution to make a slide, followed by observation of tumor blood vessels under a fluorescence microscope.

[2] = 0.5 or 1.0 mg/kg per day peritoneally

SMILES: CC(C)C[C@H](NC(=O)[C@@H](N)CCCNC(=N)N)C(=O)N[C@@H](Cc1ccc(O)cc1)C(=O)N[C@@H](CCC(=O)O)C(=O)O [RLYE] (H-RLYE-OH; N-terminus and C-terminus assumed)
- activation of p38 (p38): inhibited
- invasion of HUVECs into tumor tissue (isolectin B4 / PECAM-1 immunostaining) [1]: decreased depending on the amount of treated RLYE
- tumor growth [1, 2]: concentration-dependently inhibited
- tumor size [1, 2]: significantly reduced
- decrease in hemoglobin content in tumor tissue ([1]; compared with a control): 41%
